Reference: patent publication US4076814A, “Preventive and curative compositions against mycoplasmosis” (Sankyo Company Limited, priority 1975, dated 1978)
Values after ≈ are worked out from the molar mass of the structure shown.

Tests used:
Type in all cases: cell-based
Mycoplasma gallisepticum = experiment: Antimicrobial test, conventional agar plate dilution method, Mycoplasma gallisepticum; conditions: Mycoplasmoides gallisepticum, read-out: Minimum Inhibitory Concentration, Mycoplasma gallisepticum
From the text: (§1) ANTIMICROBIAL TEST AGAINST THREE STRAINS OF MYCOPLASMA
(§2) The test was effected by a conventional agar plate dilution method using the indicated strains of mycoplasma. The dithiocarbamic acid derivatives as shown below with Compound Nos. were employed in the test.

Mycoplasma hyorhinis = experiment: Antimicrobial test, conventional agar plate dilution method, Mycoplasma hyorhinis; conditions: Mycoplasma, read-out: Minimum Inhibitory Concentration, Mycoplasma hyorhinis
From the text: as §1, §2

Mycoplasma pulmonis = experiment: Antimicrobial test, conventional agar plate dilution method, Mycoplasma pulmonis; conditions: Mycoplasma, read-out: Minimum Inhibitory Concentration, Mycoplasma pulmonis
From the text: as §1, §2

SMILES	MIC (Mycoplasma gallisepticum) [µg/mL]	MIC (Mycoplasma hyorhinis) [µg/mL]	MIC (Mycoplasma pulmonis) [µg/mL]
CCN(CC)C(=S)SCC1CCCC1=O (stereo not drawn) [Compound No. 2, 2-Oxocyclopentylmethyl diethyldithiocarbamate]	0.1 (≈ 0.407 µM)	0.1 (≈ 0.407 µM)	0.1 (≈ 0.407 µM)
O=C1CCCCC1CSC(=S)N1CCCCC1 (stereo not drawn) [Compound No. 9, 2-Oxocyclohexylmethyl 1-piperidinecarbodithioate]	0.2 (≈ 0.737 µM)	0.2 (≈ 0.737 µM)	0.39 (≈ 1.44 µM)
CC(=O)CCSC(=S)N1CCN(C)CC1 [Compound No. 92, 2-Acetylethyl 4-methyl-1-piperazinecarbodithioate]	0.2 (≈ 0.812 µM)	0.025 (≈ 0.101 µM)	0.2 (≈ 0.812 µM)
CCN(CC)C(=S)SCC1CCCCC1=O (stereo not drawn) [compound 6, 2-Oxocyclohexylmethyl diethyldithiocarbamate]	0.1 (≈ 0.385 µM)	0.05 (≈ 0.193 µM)	0.1 (≈ 0.385 µM)
CCCCN(C)C(=S)SCC1CCCCC1=O (stereo not drawn) [compound 7, 2-Oxocyclohexylmethyl n-butylmethyldithiocarbamate]	0.2 (≈ 0.731 µM)	0.2 (≈ 0.731 µM)	0.2 (≈ 0.731 µM)
CN1CCN(C(=S)SCCC(=O)c2ccccc2)CC1.Cl [compound 34, 2-Benzoylethyl 4-methyl-1-piperazinecarbodithioate hydrochloride]	0.05	0.05	0.05
Cc1cccc(C(=O)CCSC(=S)N(C)C)c1 [compound 56, 2-(m-Toluoyl)ethyl dimethyldithiocarbamate]	0.1 (≈ 0.374 µM)	0.05 (≈ 0.187 µM)	0.1 (≈ 0.374 µM)
CN(C)C(=S)SCCC(=O)c1cccnc1 [compound 69]	0.1 (≈ 0.393 µM)	0.1 (≈ 0.393 µM)	0.1 (≈ 0.393 µM)
CC(=O)CCSC(=S)N(C)Cc1ccccc1 [compound 82, 2-Acetylethyl benzylmethyldithiocarbamate]	0.2 (≈ 0.748 µM)	0.2 (≈ 0.748 µM)	0.2 (≈ 0.748 µM)
CC(=O)CCSC(=S)N1CCOCC1 [compound 91, 2-Acetylethyl 4-morpholinecarbodithioate]	0.2 (≈ 0.857 µM)	0.025 (≈ 0.107 µM)	0.2 (≈ 0.857 µM)
CC(=O)CCSC(=S)N1CCN(C)CC1.Cl [compound 93, 2-Acetylethyl 4-methyl-1-piperazinecarbodithioate hydrochloride]	0.1	0.05	0.1
CC(C)C(=O)CCSC(=S)N(C)C [compound 104, 2-Isobutyrylethyl dimethyldithiocarbamate]	0.2 (≈ 0.912 µM)	0.2 (≈ 0.912 µM)	0.2 (≈ 0.912 µM)
CN(C)C(=S)SCCC(=O)CCc1ccccc1 [compound 123, 2-Hydrocinnamoylethyl dimethyldithiocarbamate]	0.2 (≈ 0.711 µM)	0.2 (≈ 0.711 µM)	0.2 (≈ 0.711 µM)
CCN(CC)C(=S)SCCC(=O)CCc1ccc(OC)cc1 [compound 129, 2-(p-Methoxyhydrocinnamoyl)ethyl diethyldithiocarbamate]	0.2 (≈ 0.589 µM)	0.2 (≈ 0.589 µM)	0.2 (≈ 0.589 µM)
CN(C)C(=S)SCCC(=O)C=Cc1ccccc1 [compound 134, 2-Cinnamoylethyl dimethyldithiocarbamate]	0.2 (≈ 0.716 µM)	0.2 (≈ 0.716 µM)	0.2 (≈ 0.716 µM)
CCN(CC)C(=S)SCCC(=O)C=Cc1ccc(C)cc1 [compound 142, 2-(p-Methylcinnamoyl)ethyl diethyldithiocarbamate]	0.2 (≈ 0.622 µM)	0.2 (≈ 0.622 µM)	0.2 (≈ 0.622 µM)
CCN(CC)C(=S)SCC(C)C(C)=O (stereo not drawn) [compound 148, 2-Acetylpropyl diethyldithiocarbamate]	0.05 (≈ 0.214 µM)	0.05 (≈ 0.214 µM)	0.05 (≈ 0.214 µM)
CC(=O)C(C)CSC(=S)N1CCCCC1 (stereo not drawn) [compound 149, 2-Acetylpropyl 1-piperidinecarbodithioate]	0.2 (≈ 0.815 µM)	0.05 (≈ 0.204 µM)	0.2 (≈ 0.815 µM)
CC(=O)C(CSC(=S)N(C)C)Cc1ccccc1 (stereo not drawn) [compound 156, 2-Acetyl-2-benzylethyl dimethyldithiocarbamate]	0.2 (≈ 0.711 µM)	0.2 (≈ 0.711 µM)	0.2 (≈ 0.711 µM)
CC(=O)C(CSC(=S)N(C)C)c1ccccc1 (stereo not drawn) [compound 164, 2-Acetyl-2-phenylethyl dimethyldithiocarbamate]	0.1 (≈ 0.374 µM)	0.1 (≈ 0.374 µM)	0.1 (≈ 0.374 µM)
Cc1cc(CSC(=S)N(C)C)cc(C)c1O [compound 183, 4-Hydroxy-3,5-dimethylbenzyl dimethyldithiocarbamate]	0.2 (≈ 0.783 µM)	0.2 (≈ 0.783 µM)	0.2 (≈ 0.783 µM)
Cc1cc(CSC(=S)N2CCCC2C(=O)OCc2ccccc2)cc(C)c1O (stereo not drawn) [compound 191, 4-Hydroxy-3,5-dimethylbenzyl 2-benzyloxycarbonyl-1-pyrrolidinecarbodithioate]	1.56 (≈ 3.75 µM)	3.13 (≈ 7.53 µM)	1.56 (≈ 3.75 µM)

The next lines start with the values.

MIC (Mycoplasma gallisepticum) [µg/mL]	MIC (Mycoplasma hyorhinis) [µg/mL]	MIC (Mycoplasma pulmonis) [µg/mL]	SMILES
0.05 (≈ 0.23 µM)	0.05 (≈ 0.23 µM)	0.05 (≈ 0.23 µM)	CN(C)C(=S)SCC1CCCC1=O (stereo not drawn) [Compound No. 1, 2-Oxocyclopentylmethyl dimethyldithiocarbamate]
0.05 (≈ 0.243 µM)	0.05 (≈ 0.243 µM)	0.05 (≈ 0.243 µM)	CC(=O)C(C)CSC(=S)N(C)C (stereo not drawn) [Compound No. 147, 2-Acetylpropyl dimethyldithiocarbamate]
0.1 (≈ 0.321 µM)	0.1 (≈ 0.321 µM)	0.1 (≈ 0.321 µM)	CCN(CC)C(=S)SCc1cc(C)c(O)cc1C(C)C [Compound No. 202, 4-Hydroxy-2-isopropyl-5-methylbenzyl diethyldithyldithiocarbamate]
0.2 (≈ 0.771 µM)	0.2 (≈ 0.771 µM)	0.1 (≈ 0.386 µM)	O=C1CCCC1CSC(=S)N1CCOCC1 (stereo not drawn) [compound 3, 2-Oxocyclopentylmethyl 4-morpholinecarbodithioate]
0.05 (≈ 0.216 µM)	0.05 (≈ 0.216 µM)	0.1 (≈ 0.432 µM)	CN(C)C(=S)SCC1CCCCC1=O (stereo not drawn) [compound 5, 2-Oxocyclohexylmethyl dimethyldithiocarbamate]
0.05 (≈ 0.197 µM)	0.05 (≈ 0.197 µM)	0.025 (≈ 0.0987 µM)	CN(C)C(=S)SCCC(=O)c1ccccc1 [compound 23, 2-Benzoylethyl dimethyldithiocarbamate]
0.2 (≈ 0.682 µM)	0.2 (≈ 0.682 µM)	0.2 (≈ 0.682 µM)	O=C(CCSC(=S)N1CCCCC1)c1ccccc1 [compound 30, 2-Benzoylethyl 1-piperidinecarbodithioate]
0.2 (≈ 0.65 µM)	0.2 (≈ 0.65 µM)	0.2 (≈ 0.65 µM)	O=C(CCSC(=S)N1CCCCCC1)c1ccccc1 [compound 31, 2-Benzoylethyl 1-hexamethyleneiminecarbodithioate]
0.2 (≈ 0.642 µM)	0.39 (≈ 1.25 µM)	0.2 (≈ 0.642 µM)	O=C(CCSC(=S)N1CCOCC1)c1ccccc1O [compound 42, 2-(o-Hydroxybenzoyl)ethyl 4-morpholinecarbodithioate]
0.2 (≈ 0.748 µM)	0.2 (≈ 0.748 µM)	0.39 (≈ 1.46 µM)	Cc1ccc(C(=O)CCSC(=S)N(C)C)cc1 [compound 55, 2-(p-Toluoyl)ethyl dimethyldithiocarbamate]
0.1 (≈ 0.374 µM)	0.1 (≈ 0.374 µM)	0.2 (≈ 0.748 µM)	Cc1ccccc1C(=O)CCSC(=S)N(C)C [compound 57, 2-(o-Toluoyl)ethyl dimethyldithiocarbamate]
0.1 (≈ 0.294 µM)	1.56 (≈ 4.58 µM)	0.39 (≈ 1.15 µM)	O=C(CCSC(=S)N1CCOCC1)c1ccccc1[N+](=O)[O-] [compound 61, 2-(o-Nitrobenzoyl)ethyl 4-morpholinecarbodithioate]
0.05 (≈ 0.261 µM)	0.025 (≈ 0.131 µM)	0.05 (≈ 0.261 µM)	CC(=O)CCSC(=S)N(C)C [compound 78, 2-Acetylethyl dimethyldithiocarbamate]
0.1 (≈ 0.428 µM)	0.1 (≈ 0.428 µM)	0.1 (≈ 0.428 µM)	CCCCN(C)C(=S)SCCC(C)=O [compound 80, 2-Acethylethyl butylmethyldithiocarbamate]
0.2 (≈ 0.771 µM)	0.2 (≈ 0.771 µM)	0.2 (≈ 0.771 µM)	CC(=O)CCSC(=S)N(C)C1CCCCC1 [compound 81, 2-Acetylethyl cyclohexylmethyldithiocarbamate]
0.2 (≈ 0.815 µM)	0.1 (≈ 0.407 µM)	0.1 (≈ 0.407 µM)	CC(=O)CCSC(=S)N1CCCCCC1 [compound 89, 2-Acetylethyl 1-hexamethyleneiminecarbodithioate]
0.05 (≈ 0.214 µM)	0.05 (≈ 0.214 µM)	0.05 (≈ 0.214 µM)	CCC(=O)CCSC(=S)N(CC)CC [compound 99, 2-Propionylethyl diethyldithiocarbamate]
0.1 (≈ 0.404 µM)	0.1 (≈ 0.404 µM)	0.1 (≈ 0.404 µM)	CCC(=O)CCSC(=S)N1CCOCC1 [compound 101, 2-Propionylethyl 4-morphonlinecarbodithioate]
0.2 (≈ 0.857 µM)	0.2 (≈ 0.857 µM)	0.2 (≈ 0.857 µM)	CN(C)C(=S)SCCC(=O)C(C)(C)C [compound 108, 2-Pivaroylethyl dimethyldithiocarbamate]
0.2 (≈ 0.614 µM)	0.2 (≈ 0.614 µM)	0.2 (≈ 0.614 µM)	CCN(CC)C(=S)SCCC(=O)CCc1ccccc1O [compound 125, 2-(o-Hydroxyhydrocinnamoyl)ethyl diethyldithiocarbamate]
0.2 (≈ 0.65 µM)	0.2 (≈ 0.65 µM)	0.2 (≈ 0.65 µM)	CCN(CC)C(=S)SCCC(=O)C=Cc1ccccc1 [compound 135, 2-Cinnamoylethyl diethyldithiocarbamate]
0.39 (≈ 1.2 µM)	0.39 (≈ 1.2 µM)	0.39 (≈ 1.2 µM)	CC1=C(C=CC(=O)CCSC(=S)N(C)C)C(C)(C)CCC1 [compound 146, 2-[β-(2,6,6-Trimethylcyclohexene-1-yl)acryloyl]-ethyl dimethyldithiocarbamate]
0.1 (≈ 0.302 µM)	0.39 (≈ 1.18 µM)	0.1 (≈ 0.302 µM)	CCCCCCCCCCC(CSC(=S)N(C)C)C(C)=O (stereo not drawn) [compound 152, 2-Acetyldodecyl dimethyldithiocarbamate]
0.78 (≈ 2.77 µM)	0.78 (≈ 2.77 µM)	0.78 (≈ 2.77 µM)	Cc1cc(CSC(=S)N2CCCC2)cc(C)c1O [compound 187, 4-Hydroxy-3,5-dimethylbenzyl 1-pyrrolidinecarbodithioate]
0.39 (≈ 1.32 µM)	0.1 (≈ 0.338 µM)	0.39 (≈ 1.32 µM)	Cc1cc(CSC(=S)N2CCCCC2)cc(C)c1O [compound 192, 4-Hydroxy-3,5-dimethylbenzyl 1-piperidinecarbodithioate]
